This is an account of results in patent publication US20100190182A1, “DIAGNOSTIC COMPOSITION AND METHOD FOR THE DETECTION OF A TRICHINELLA INFECTION” (priority 2007, published 2010).

Where no end group is shown, it is not given here. The star is where a group is joined. 5FAM = O=C1OC2(c3ccc(O)cc3Oc3cc(O)ccc32)c2ccc(C(=O)*)cc21

The subject of experiment [1] is Trichinella positive serum (antibodies against Trichinella). Briefly: FPA discrimination between Trichinella positive and Trichinella negative serum. Format: binding. Conditions: mP positive serum minus mP negative serum; tracer 5 nM; buffer differs per tracer as listed in Table 2. The method, then:
Table 2 depicts for some of the Trichinella peptides their ability to discriminate between a Trichinella positive and a Trichinella negative serum sample using fluorescence polarisation assay (FPA).
FPA analysis of the tracers shown in Table 2 was performed by the following procedure. A […] aliquot of the positive or negative serum was diluted with […] of buffer (PBS with detergent as indicated in Table 2) in a single well of a black coloured 96-well plate. The plate was incubated for 2 minutes at room temperature on an orbital shaker set at 1350 rpm and then incubated for another minute without shaking. Blank measurement of the sample was then performed by reading the fluorescence polarisation in a fluorescence reader (Safire2, Tecan, Switzerland) with excitation and emission wavelength set at 470 nm and 520 nm, respectively. Then, […] tracer was added to the reaction mixture to a final concentration of 5 nM and the plate was incubated at room temperature with shaking (1350 rpm) for 15 minutes and then for an additional minute without shaking. Then the plate was measured.
(§1) The mP values were calculated according to the following formula: […]
(§2) The ΔmP values were obtained by subtracting the mP values of the negative serum from the positive sera:
ΔmP=mPpositive serum=mPnegative serum

Experiment [2] concerns anti-FLAG M2 monoclonal antibody. Briefly: FPA analysis of FLAG model peptide tracers with anti-FLAG antibody. Type of experiment: binding. Particulars: TBS pH 7.2.
Description: The FLAG peptide (a well known tag, e.g. used for immuno affinity purification) was used as a model peptide to develop a labelling strategy for peptide tracers which allows chemical linking of a fluorophore to the peptide to reduce or inhibit rotation of the fluorophore relative to the peptide. The FLAG peptide and an elongated FLAG peptide were used to and coupled to 5-Carboxyfluorescein (5-CF) with a linker containing the following amino acid composition
FPA analysis of the FLAG Model peptide shown in Table 1 was performed by the following procedure.
The FLAG Model peptide tracers were diluted in TBS (containing 25 mM Tris, 0.15M NaCl, NP40 0.05%, pH 7.2) at a concentration of 8.1 nM or 2.7 nM, respectively in a single well of a black colored 96-well plate. The plate was incubated for 2 minutes at room temperature on an orbital shaker set at 1350 rpm and then incubated for another minute without shaking. Blank measurement of the sample was then performed by reading the fluorescence polarisation in a fluorescence reader (Safir2, Tecan, Switzerland) with excitation and emission wavelength set at 470 nm and 520 nm, respectively.
Then, 1, 3 or 10 molar equivalence of the anti-FLAG M2 monoclonal antibody (Sigma, Switzerland), respectively, were added and the plate was incubated at room temperature with shaking (1350 rpm) for 3 minutes and then for an additional minute without shaking. Then the plate was measured.
as §1, §2
ΔmP=mPpositive serum−mPnegative serum

Experiment [3] has as its system Trichinella positive sera (antibodies against Trichinella). The experiment can be described thus: ELISA discrimination between Trichinella positive and negative serum using SS2 peptides. Conditions: peptide-coated plate; serial two fold dilutions of serum; read at 405 nm; FIGS. 8a and b. Type of experiment: binding, pig. As to the method: FIGS. 8a and b show the results of 2 of the preferred SS2 peptides (SEQ IDs NO 7 and 8) tested in ELISA assays. […] Serial two fold dilutions of the serum sample were tested.
Single wells of a 96-well microtitre plate were coated with the SS2 peptides ([…]) at a concentration of […] in carbonate buffer 0.1 M (pH 9.5) overnight at 4° C. The plate was washed 4 times with 0.05% Tween 80 and then blocked with a PBS buffer containing 2% I-block and 0.1% Tween 20 for 90 minutes at 25° C.±3° C. Pig sera were diluted 50-fold in phosphate buffered saline and serial 2-fold dilutions were incubated in the microtitre plate with shaking (500 rpm) for 2 hours at room temperature. The plates were washed 4 times with 0.05% Tween 80 Detection of the bound antibodies was performed by incubation with a goat anti-pig IgG(Fc)-POD conjugate (Bethyl Laboratories, USA) at a concentration of 1.3 ug/ml for 1 h at RT with shaking (500 rpm). Following four more washes, 2′-azino-bis(3-ethylbenzthiazoline-6-sulphonic acid) (ABTS) substrate solution was added and incubated for 30 minutes, colour development was measured in a ELISA reader (Tecan, Switzerland) at a wavelength of 405 nm.
Background: An ELISA detects its analyte on a solid surface through an enzyme-linked reagent.

[4] abbreviates: tracer 2.7 nM, 1 molar equivalent anti-FLAG antibody.
The mark [5] stands for this setting: tracer 2.7 nM, 3 molar equivalents anti-FLAG antibody.
[6] abbreviates: tracer 2.7 nM, 10 molar equivalents anti-FLAG antibody.
[7] abbreviates: tracer 8.1 nM, 1 molar equivalent anti-FLAG antibody.
Setting [8] is: tracer 8.1 nM, 3 molar equivalents anti-FLAG antibody.
The mark [9] stands for this setting: tracer 8.1 nM, 10 molar equivalents anti-FLAG antibody.

Consider “KPFGDEIDRI LRKAF (KPFGDEIDRILRKAF; listed as Trichinella spiralis) [SEQ ID NO 26, peptide of Trichinella spiralis 53 kDa excretory/secretory antigen]”, for which the ΔmP in experiment [1] is given as 31 mP.

In the case of “5-CF-Trp(2)-Gly(9)-Asp-Tyr-Lys-Asp-Asp-Asp-Asp-Lys (5FAM-WWGGGGGGGGGDYKDDDDK) [5-CF-Trp(2)-Gly(9)-FLAG, FLAG model peptide tracer coupled to 5-Carboxyfluorescein via Trp-Trp linker]”, the ΔmP values came to 5 mP in experiment [2] (setting [4]); 35 mP in experiment [2] (setting [5]); 97 mP in experiment [2] (setting [6]); 37 mP in experiment [2] (setting [7]); 78 mP in experiment [2] (setting [8]); 124 mP in experiment [2] (setting [9]).

“MHKITHKSIV SRHTFAVYLL VSGQK (MHKITHKSIVSRHTFAVYLLVSGQK; listed as Trichinella spiralis) [SEQ ID NO 5, peptide of Trichinella spiralis newborn larvae-specific protein SS2; used as FPA tracer]” returned a ΔmP in experiment [1] of 39 mP.

“VVYSKTSSSR LEMYGSF (VVYSKTSSSRLEMYGSF; listed as Trichinella spiralis) [SEQ ID NO 16, peptide of Trichinella spiralis 43 kDa secreted glycoprotein]”: in experiment [1], the ΔmP came to 20 mP.

Take “PTYPSSGSRP TYPSSGSRPT YPYTG (PTYPSSGSRPTYPSSGSRPTYPYTG; listed as Trichinella spiralis) [SEQ ID NO 8, peptide of Trichinella spiralis newborn larvae-specific protein SS2]”: in experiment [3], the “ability to discriminate between negative and positive sera in ELISA” value was “able to discriminate between negative and positive sera”. For the same substance, the ΔmP in experiment [1] came out at 66 mP.

Turning to “5-CF-Trp-Gly(9)-Asp-Tyr-Lys-Asp-Asp-Asp-Asp-Lys (5FAM-WGGGGGGGGGDYKDDDDK) [5-CF-Trp-Gly(9)-FLAG, FLAG model peptide tracer coupled to 5-Carboxyfluorescein via Trp linker]”, the ΔmP values is 9 mP in experiment [2] (setting [4]); 27 mP in experiment [2] (setting [5]); 55 mP in experiment [2] (setting [6]); 19 mP in experiment [2] (setting [7]); 50 mP in experiment [2] (setting [8]); 86 mP in experiment [2] (setting [9]).

On to “ALRLKRFAK (listed as Trichinella spiralis) [SEQ ID NO 28, peptide of Trichinella spiralis 53 kDa excretory/secretory antigen]”, for which, in experiment [1], the ΔmP is listed as 41 mP.

Consider “QNERQFDENK LKKLLKPLG (QNERQFDENKLKKLLKPLG; listed as Trichinella spiralis) [SEQ ID NO 20, peptide of Trichinella spiralis 53 kDa excretory/secretory antigen]”, for which, in experiment [1], the ΔmP is 28 mP.

With “QNERQFDENK LKKLLKPLGK LYKTPSD (QNERQFDENKLKKLLKPLGKLYKTPSD; listed as Trichinella spiralis) [SEQ ID NO 19, peptide of Trichinella spiralis 53 kDa excretory/secretory antigen]”, the ΔmP in experiment [1] is listed as 33 mP.

“VVTIFRKNGK TTEVLSL (VVTIFRKNGKTTEVLSL; listed as Trichinella spiralis) [SEQ ID NO 24, peptide of Trichinella spiralis 53 kDa excretory/secretory antigen]” came in with a ΔmP in experiment [1] of 57 mP.

In experiment [1], “KEADKSALRL KRFAKPPKGF F (KEADKSALRLKRFAKPPKGFF; listed as Trichinella spiralis) [SEQ ID NO 27, peptide of Trichinella spiralis 53 kDa excretory/secretory antigen]” showed a ΔmP of 31 mP.

Substance “VGGTDVRPHSH PWQIQLLKSET G (VGGTDVRPHSHPWQIQLLKSETG; listed as Trichinella spiralis) [SEQ ID NO 6, peptide of Trichinella spiralis newborn larvae-specific protein SS2; used as FPA tracer]” returned a ΔmP in experiment [1] of 35 mP.

For “LSTASRPTNP YTGSRPTSPS SGSRP (LSTASRPTNPYTGSRPTSPSSGSRP; listed as Trichinella spiralis) [SEQ ID NO 7, peptide of Trichinella spiralis newborn larvae-specific protein SS2]”, in experiment [3], the “ability to discriminate between negative and positive sera in ELISA” value is “able to discriminate between negative and positive sera”. In addition, in experiment [1], the ΔmP came out at 20 mP.

Take “PTYPSSGSRP TYPSSGSRP (PTYPSSGSRPTYPSSGSRP; listed as Trichinella spiralis) [SEQ ID NO 9, peptide of Trichinella spiralis newborn larvae-specific protein SS2]”: the ΔmP in experiment [1] was determined as 66 mP.

For “5-CF-Pro-Gly(9)-Asp-Tyr-Lys-Asp-Asp-Asp-Asp-Lys [S-CF-Pro-Gly(9)-FLAG]”, the ΔmP values in experiment [2] (setting [4]) was found to be 5 mP; in experiment [2] (setting [5]), 15 mP; in experiment [2] (setting [6]), 33 mP; in experiment [2] (setting [7]), 14 mP; in experiment [2] (setting [8]), 33 mP; in experiment [2] (setting [9]), 62 mP.

For the substance “NNYRGRQGIA GLGML (NNYRGRQGIAGLGML; listed as Trichinella spiralis) [SEQ ID NO 23, peptide of Trichinella spiralis 53 kDa excretory/secretory antigen]”, the ΔmP in experiment [1] was found to be 23 mP.
